{
  "source": "patent US20090048198A1",
  "about": "“COMPOSITIONS AND METHODS FOR NUCLEIC ACID DELIVERY SYSTEMS” (Northwestern University, priority 2007, published 2009)",
  "key": {"[1]": {"test": "DSC of hydrated cationic lipid dispersions and binary phase diagrams", "format": "physicochemical", "details": "for melting transition Tm (solid-liquid crystalline): hydrated dispersions, DSC heating 30° C./h", "protocol": "(§1) Chloroform solutions of cationic lipids were mixed in glass vials at the desired ratios, solvent was removed with a N2 stream and, subsequently, high vacuum. The lipid mixtures were hydrated in PBS (50 mM phosphate buffer, 100 mM NaCl, pH 7.2) overnight at room temperature and vortex-mixed for several minutes; then they were subjected to several cycles of freezing and thawing. Samples were subsequently equilibrated overnight at room temperature before measurement.\nDSC measurements were performed using a VP-DSC Microcalorimeter (MicroCal Inc., Northampton, Mass.) at 30° C./h. Thermograms were analyzed using OriginLab (Northampton, Mass.) software. The onset and the completion temperatures of the phase transitions needed for the construction of the phase diagram were determined by the intersections of the peak slopes with the baseline on the thermograms. The maximums of the heat capacity curves were taken as the phase transition temperatures of the pure components. For asymmetric or split line shapes of the composite aggregates, the transition temperature was defined as that temperature at which the area of the endotherm was divided into equal halves."}, "[2]": {"tested_on": "Human umbilical artery endothelial cells (HUAECs)", "test": "Transfection of HUAECs with lipoplexes, β-galactosidase reporter assay", "format": "cell-based", "details": "HUAEC cells in vitro; CMV-β-galactosidase plasmid; β-galactosidase activity 24 h after transfection", "protocol": "Human umbilical artery endothelial cells (HUAECs) were obtained from Cambrex (Walkersville, Md.) were and maintained in EGM-2 MV containing 5% fetal bovine serum (FBS) (Cambrex) at 37° C. with 5% CO2. At confluence, the cells were passaged using 0.25 mg/ml Trypsin/EDTA (Cambrex) and were used at passages 5-10 for these experiments. It is noted that human endothelial cells, and particularly HUAECs, are known in the art to be difficult to transfect (see, Teifel, et al., Endothelium, New York, 5, 21-35 (1997); Krotz et al., J. Vasc. Res., 40:425-434 (2003); and Tanner et al., Cardiovascular Research, 35:522-528 (1997)) all of which are herein incorporated by reference. For example, it has been reported that the level of transfection for a reporter gene in human umbilical vein endothelial cells is less than 1% of that of HeLa cells (Edgell et al., BioTechniques, 25:264-272 (1998), herein incorporated by reference).\nThe cells were seeded in 96-well plates at 24 h before transfection at densities appropriate to give about 80% confluence at the time of transfection. CMV-β-galactosidase plasmid was purchased from Clontech Laboratories Inc. (Palo Alto, Calif.) and propagated and purified by Bayou Biolabs (Harahan, La.). […]"}, "[3]": {"test": "Synchrotron small-angle X-ray diffraction (SAXD) on heating", "format": "physicochemical", "details": "SAXD heating scans 20-90° C.", "protocol": "as §1\nMeasurements were performed at Argonne National Laboratory, Advanced Photon Source, DND-CAT (beamline 5-IDD) and BioCAT (beamline 18-ID), using 12 keV X-rays, as previously described [1 R. Koynova, R. C. MacDonald, Mixtures of Cationic Lipid O-Ethylphosphatidylcholine With Membrane Lipids and DNA: Phase Diagrams, Biophys. J. 85 (2003) 2449-2465]. The lipid concentration of the dispersions was 20 wt %. Samples were filled into glass capillaries (Charles Supper Co., Natick, Mass.) and flame-sealed. A Linkam thermal stage (Linkam Sci Instruments, Surrey, England) provided temperature control. Linear heating and cooling scans were performed at rates of 1-5° C./min. Exposure times were typically 0.5 sec. Data were collected using a MAR-CCD detector. Sample-to-detector distance was 1.8-2 m. […] Products of lipid degradation were not detected in these samples, and radiation damage of the lipids was not evident from their X-ray patterns."}},
  "note": "Several values for one entry are separate records, joined by “and”; a condition that tells them apart may be missing. Equal entries are not always repeated.",
  "data": [
    {"compound": "CCCCCCCCCCCCCC(=O)OC[C@H](COP(=O)(OCC)OCC[N+](C)(C)C)OC(=O)CCCCCCCCCCCCC", "note": "(some centres unmarked) [EDMPC]", "values": [
      {"measurement": "phase at physiological temperature (37° C.) according to phase diagram", "setting": "[1]", "result": "liquid crystalline phase"},
      {"measurement": "melting transition Tm (solid-liquid crystalline)", "setting": "[1]", "result": 24, "unit": "°C"},
      {"measurement": "transfection activity", "setting": "[2]", "result": "better transfection agents than EDPPC"}
    ]},
    {"compound": "CCCCCCCCCCCCCCCC(=O)OC[C@H](COP(=O)(OCC)OCC[N+](C)(C)C)OC(=O)CCCCCCCCCCCCCCC", "note": "(some centres unmarked) [EDPPC]", "values": [
      {"measurement": "phase at physiological temperature (37° C.) according to phase diagram", "setting": "[1]", "result": "solid phase"},
      {"measurement": "melting transition Tm (solid-liquid crystalline)", "setting": "[1]", "result": 42, "unit": "°C"},
      {"measurement": "transfection activity", "setting": "[2]", "result": "still transfects DNA into cells"}
    ]},
    {"compound": "CCCCCCCCCCCCCC[N+](C)(C)CCCCCCCCCCCCCC.[Br-]", "note": "[diC14DAB, Ditetradecyldimethylammonium-bromide]", "values": [
      {"measurement": "melting transition Tm (solid-liquid crystalline)", "setting": "[1]", "result": 26, "unit": "°C"},
      {"measurement": "temperature of solid-liquid crystalline (lamellar) transition on heating", "setting": "[3]", "result": "25 °C and ~26 °C"}
    ]},
    {"compound": "CCCCCCCCCCCCCCCCCC[N+](C)(C)CCCCCCCCCCCCCCCCCC.[Br-]", "note": "[diC18DAB, dioctadecyldimethylammonium-bromide]", "values": [
      {"measurement": "phase at physiological temperature (37° C.) according to phase diagram", "setting": "[1]", "result": "solid phase"},
      {"measurement": "melting transition Tm (solid-liquid crystalline)", "setting": "[1]", "result": "~50", "unit": "°C"},
      {"measurement": "temperature of solid-liquid crystalline (lamellar) transition on heating", "setting": "[3]", "result": 47, "unit": "°C"}
    ]}
  ]
}
